Laboratory results reported in patent US10421761B2, “Compounds for kinase modulation, and indications therefor” (Plexxikon Inc., priority 2013, dated 2019).
“Also recorded” adds a separate entry of the source. Read-outs that look alike come from different tables or passages of the source.

Tests used:
[1] = target: T1, BRAF V600E (Homo sapiens, UniProt P15056, V600E); assay: BRAF V600E biochemical kinase activity assay (AlphaScreen, biotin-MEK1 substrate); settings: BRAF V600E biochemical inhibitory activity
T1 construct: purchased Upstate Biotechnology
Description: Compounds to be tested are diluted in dimethyl sulfoxide to a concentration of 0.1 mM. These are serially diluted 15 μL into 30 μL of dimethyl sulfoxide seven times in 96 well plates for a total of 8 dilution points, and for each dilution point 1 μL is added to a well of an assay plate. […] The reaction is started with addition of 10 μL of 200 μM ATP (i.e. final 100 μM ATP). After incubation of the kinase reaction for 45 minutes at room temperature, 5 μL/well of Stop Solution is added (25 mM Hepes pH 7.5, 100 mM EDTA, 0.01% BSA with donor beads (Streptavidin coated beads, Perkin Elmer), acceptor beads (Protein A coated, Perkin Elmer), and anti-phosphor MEK1/2 antibody (CellSignal), each at final concentration 10 μg/mL). The plates are incubated for 3 hours at room temperature and read on Envision reader (Perkin Elmer). Phosphorylation of Mek1 results in binding of the anti-phosphor-MEK1/2antibody and association of the donor and acceptor beads such that signal correlates with kinase activity. The signal versus compound concentration is used to determine the IC50.
The in vitro RAF kinase activities were determined by measuring phosphorylation of a biotinylated substrate peptide as described previously (Tsai, J. et al. Proc Natl Acad Sci USA 105, 3041-3046 (2008)). Compounds of formula (I), e.g., compound A, was also tested against a panel of 287 kinases at concentrations of 1 μM in duplicate. Kinases inhibited by over 50% were followed up by IC50 determination. The 287 kinases represent all major branches of the kinome phylogenetic tree. The inhibition screen of 287 kinases was carried out under contract as complementary panels at Invitrogen (Life Technologies, Wis., USA) SelectScreen™ profiling service, DiscoverX (CA, USA) KINOMEScan™ service, and Reaction Biology Corporation (PA, USA) Kinase HotSpot℠ service.

[2] = system: A375 (BRAF V600E) cell line; assay: A375 P-ERK inhibition assay (AlphaScreen); format: cell-based, human; settings: for IC50: Homo sapiens, A-375, A375_P-ERK
Description: (§1) Phospho-ERK AlphaScreen® assay. To determine the effects of compound treatment upon phosphorylation of ERK1/2, cells were plated in a 96-well dish and treated with an 8-point titration of compound for one hour at 37° C. before lysis. To detect pERK, cell lysates were incubated with streptavidin-coated AlphaScreen® donor beads, anti-mouse IgG AlphaScreen® acceptor beads, a biotinylated anti-ERK1/2 rabbit antibody, and a mouse antibody that recognizes ERK1/2 only when it is phosphorylated on Thr202 and Tyr204. The biotinylated ERK1/2 antibody binds to both the streptavidin-coated AlphaScreen® donor beads and to ERK1/2 (regardless of its phosphorylation state), and the phospho-ERK1/2 antibody binds to the acceptor beads and to ERK1/2 that is phosphorylated at Thr202/Tyr204. An increase in ERK1/2 phosphorylation at Thr202/Tyr204 brings the donor and acceptor AlphaScreen® beads into close proximity, generating a signal that can be quantified on an EnVision reader (Perkin Elmer).

[3] = system: IPC-298 (NRAS Q61L) cell line; assay: IPC-298 P-ERK cell activation assay (AlphaScreen); format: cell-based, human; settings: for EC50: Homo sapiens, P-ERK cell activation, IPC-298, read-out: Cell activity (EC50 μM) IPC-298_P-ERK
Description: (§2) B9 is a squamous cell carcinoma cell line expressing activated HRAS that was isolated from a DMBA/TPA-induced mouse model of skin carcinogenesis (Stoler, et al. The Journal of Cell Biology, 1993, 122(5), 1103-17). IPC-298 is a human melanoma cell line that expresses activated NRAS (Aubert, et al. International Journal of Cancer, 1993, 54(5), 784-92). To determine whether compounds induce phosphorylated ERK and MEK, cells are plated in a 96-well dish and treated with an 8-point titration of compound for one hour at 37° C. The media is then removed and the cells are incubated with lysis buffer containing protease and phosphatase inhibitors. Phosphorylated ERK and MEK in the resulting lysates is detected using AlphaScreen™ technology. To detect phosphorylated ERK, cell lysates are incubated with streptavidin-coated donor beads, anti-mouse IgG acceptor beads, a biotinylated anti-ERK1/2 rabbit antibody, and a mouse antibody that recognizes ERK1/2 only when it is phosphorylated on Thr202 and Tyr204. The biotinylated ERK1/2 antibody will bind to both the streptavidin-coated donor beads and to ERK1/2 (regardless of its phosphorylation state), and the phospho-ERK1/2 antibody will bind to the acceptor beads and to ERK1/2 that is phosphorylated at Thr202/Tyr204. Excitation of the beads with laser light at 680 nm produces singlet oxygen, which is rapidly quenched unless the beads are in close proximity. When ERK is phosphorylated, both antibodies can bind the same protein, bringing the donor and acceptor beads into close proximity, producing a signal that can be measured at 580 nm. MEK phosphorylation is detected using a similar approach, only with antibodies directed against total MEK1/2 and MEK1/2 that is phosphorylated at Ser217 and Ser221.
as §1

[4] = system: B9 (HRAS Q61L) cell line; assay: B9 P-ERK cell activation assay (AlphaScreen); format: cell-based, mouse; settings: for EC50: Mus musculus, P-ERK cell activation, B9, numeric bounds, read-out: Cell activity (EC50 μM) B9_pERK
Description: as §2, §1

T1 sequence (P15056 whole entry V600E): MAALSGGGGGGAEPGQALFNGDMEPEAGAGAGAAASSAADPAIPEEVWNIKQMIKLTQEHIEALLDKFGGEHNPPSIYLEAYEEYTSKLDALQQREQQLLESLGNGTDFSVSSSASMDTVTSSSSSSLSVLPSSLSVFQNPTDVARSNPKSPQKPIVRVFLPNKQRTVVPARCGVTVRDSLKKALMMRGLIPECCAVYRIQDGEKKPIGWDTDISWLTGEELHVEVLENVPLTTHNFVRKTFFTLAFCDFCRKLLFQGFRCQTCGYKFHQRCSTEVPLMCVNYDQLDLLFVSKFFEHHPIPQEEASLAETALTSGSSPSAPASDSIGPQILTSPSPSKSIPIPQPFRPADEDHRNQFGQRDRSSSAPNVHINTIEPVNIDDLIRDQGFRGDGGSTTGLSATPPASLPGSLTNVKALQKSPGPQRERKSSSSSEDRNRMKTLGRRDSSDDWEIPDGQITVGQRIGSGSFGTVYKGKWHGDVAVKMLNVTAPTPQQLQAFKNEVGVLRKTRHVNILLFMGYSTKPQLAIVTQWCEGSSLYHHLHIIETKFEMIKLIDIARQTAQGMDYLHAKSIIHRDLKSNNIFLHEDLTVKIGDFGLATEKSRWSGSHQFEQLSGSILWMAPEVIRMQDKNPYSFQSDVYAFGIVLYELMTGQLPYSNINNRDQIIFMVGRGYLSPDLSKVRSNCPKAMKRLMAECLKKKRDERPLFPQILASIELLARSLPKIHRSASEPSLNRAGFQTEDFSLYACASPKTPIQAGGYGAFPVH

IC50 [1]	IC50 [2]	EC50 ([3]; numeric bounds)	EC50 [4]	EC50 ([3]; class symbols)	SMILES	pERK activation ([3]; RAS mutant cell line IPC-298, one hour treatment)	pERK inhibition ([2]; BRAF V600E cell line A375)	pERK activation ([4]; RAS mutant cell line B9, one hour treatment)
0.0001 to 1 µM	0.0001 to 1 µM				CC(C)S(=O)(=O)Nc1ccc(F)c(C(=O)c2c[nH]c3ncnc(NCC4CC4)c23)c1F [P-2047, N-[3-[4-(cyclopropylmethylamino)-7H-pyrrolo[2,3-d]pyrimidine-5-carbonyl]-2,4-difluoro-phenyl]propane-2-sulfonamide]			
	> 10 µM	> 10 µM	> 10 µM		O=C(c1c(F)ccc(NS(=O)(=O)C2CCCC2)c1F)c1c[nH]c2ncncc12 [P-2028, N-[2,4-difluoro-3-(7H-pyrrolo[2,3-d]pyrimidine-5-carbonyl)phenyl]cyclopentanesulfonamide]			
0.0001 to 1 µM	0.0001 to 1 µM	> 10 µM			O=C(c1cccc(NS(=O)(=O)N2CCCC2)c1F)c1c[nH]c2ncnc(NCC(F)(F)F)c12 [P-2077, N-[2-fluoro-3-[4-(2,2,2-trifluoroethylamino)-7H-pyrrolo[2,3-d]pyrimidine-5-carbonyl]phenyl]pyrrolidine-1-sulfonamide]			
0.0001 to 1 µM	0.0001 to 1 µM			0.0001 to 1 µM	COC(=O)N[C@@H](C)CNc1nccc(-c2nn(C(C)C)cc2-c2cc(Cl)cc(NS(=O)(=O)N3CCCC3)c2F)n1 [P-2160, methyl N-[(1S)-2-[[4-[4-[5-chloro-2-fluoro-3-(pyrrolidin-1-ylsulfonylamino)phenyl]-1-isopropyl-pyrazol-3-yl]pyrimidin-2-yl]amino]-1-methyl-ethyl]carbamate]			
0.0001 to 1 µM		> 10 µM	> 10 µM		Cc1cc(NS(=O)(=O)N2CCCC2)c(F)c(C(=O)c2c[nH]c3ncc(-c4cnc(C5CC5)nc4)cc23)c1 [P-2183, N-[3-[5-(2-cyclopropylpyrimidin-5-yl)-1H-pyrrolo[2,3-b]pyridine-3-carbonyl]-2-fluoro-5-methyl-phenyl]pyrrolidine-1-sulfonamide]			
0.0001 to 1 µM	0.0001 to 1 µM	> 10 µM			CN(C)S(=O)(=O)Nc1ccc(F)c(C(=O)c2c[nH]c3ncnc(NCC4CC4)c23)c1F [P-2048, 4-(cyclopropylmethylamino)-5-[3-(dimethylsulfamoylamino)-2,6-difluoro-benzoyl]-7H-pyrrolo[2,3-d]pyrimidine]			
0.0001 to 1 µM	0.0001 to 1 µM				CC(C)S(=O)(=O)Nc1ccc(F)c(C(=O)c2c[nH]c3nccc(Cl)c23)c1F [P-2013, N-[3-(4-chloro-1H-pyrrolo[2,3-b]pyridine-3-carbonyl)-2,4-difluoro-phenyl]propane-2-sulfonamide]			
					CCN(C)S(=O)(=O)Nc1cccc(-c2nc(C(C)(C)C)sc2-c2ccnc(N)n2)c1F [P-0352, 5-(2-aminopyrimidin-4-yl)-2-tert-butyl-4-[3-[[ethyl(methyl)sulfamoyl]amino]-2-fluoro-phenyl]thiazole]	significantly reduced pERK activation; also recorded: markedly reduced pERK activation	preserving the potent inhibitory activity; also recorded: moderate decrease in pERK IC50	significantly reduced pERK activation; also recorded: markedly reduced pERK activation
	0.0001 to 1 µM	> 10 µM	> 10 µM		O=C(c1c(F)ccc(NS(=O)(=O)N2CCCC2)c1F)c1c[nH]c2ncncc12 [P-2029, N-[2,4-difluoro-3-(7H-pyrrolo[2,3-d]pyrimidine-5-carbonyl)phenyl]pyrrolidine-1-sulfonamide]			
	0.0001 to 1 µM	> 10 µM	> 10 µM		CC1(C)OCC(CNc2ncnc3[nH]cc(C(=O)c4cccc(NS(=O)(=O)N5CCCC5)c4F)c23)O1 (stereo not drawn) [P-2095, N-[3-[4-[(2,2-dimethyl-1,3-dioxolan-4-yl)methylamino]-7H-pyrrolo[2,3-d]pyrimidine-5-carbonyl]-2-fluoro-phenyl]pyrrolidine-1-sulfonamide]			
0.0001 to 1 µM	0.0001 to 1 µM		> 10 µM		Cc1nc2c(-c3sc(C(C)(C)C)nc3-c3cccc(NS(=O)(=O)N4CCCC4)c3F)ccnc2[nH]1 [P-2126, N-[3-[2-tert-butyl-5-(2-methyl-3H-imidazo[4,5-b]pyridin-7-yl)thiazol-4-yl]-2-fluoro-phenyl]pyrrolidine-1-sulfonamide]			
0.0001 to 1 µM	0.0001 to 1 µM	> 10 µM			CN(C)S(=O)(=O)Nc1cc(Cl)cc(C(=O)c2c[nH]c3ncc(-c4cnc(C5CC5)nc4)cc23)c1F [P-2175, 3-[5-chloro-3-(dimethylsulfamoylamino)-2-fluoro-benzoyl]-5-(2-cyclopropylpyrimidin-5-yl)-1H-pyrrolo[2,3-b]pyridine]			
0.0001 to 1 µM	0.0001 to 1 µM	> 10 µM			O=C(c1cccc(NS(=O)(=O)N2CCCC2)c1F)c1c[nH]c2ncnc(NCCC(F)(F)F)c12 [P-2112, N-[2-fluoro-3-[4-(3,3,3-trifluoropropylamino)-7H-pyrrolo[2,3-d]pyrimidine-5-carbonyl]phenyl]pyrrolidine-1-sulfonamide]			
0.0001 to 1 µM	0.0001 to 1 µM				CCCC(C)S(=O)(=O)Nc1ccc(F)c(C(=O)c2c[nH]c3ncnc(NCC4CC4)c23)c1F (stereo not drawn) [P-2051, N-[3-[4-(cyclopropylmethylamino)-7H-pyrrolo[2,3-d]pyrimidine-5-carbonyl]-2,4-difluoro-phenyl]pentane-2-sulfonamide]			
0.0001 to 1 µM	0.0001 to 1 µM	> 10 µM			CCN(C)S(=O)(=O)Nc1cc(Cl)cc(-c2cn(C(C)C)nc2-c2ccnc(NC[C@H](C)NC(=O)OC)n2)c1F [P-2164, methyl N-[(1S)-2-[[4-[4-[5-chloro-3-[[ethyl(methyl)sulfamoyl]amino]-2-fluoro-phenyl]-1-isopropyl-pyrazol-3-yl]pyrimidin-2-yl]amino]-1-methyl-ethyl]carbamate]			
0.0001 to 1 µM	0.0001 to 1 µM		> 10 µM		COC(=O)N[C@@H](C)CNc1nccc(-c2sc(C(C)(C)C)nc2-c2cccc(NS(=O)(=O)N3CC[C@@H](F)C3)c2F)n1 [P-2138, methyl N-[(1S)-2-[[4-[2-tert-butyl-4-[2-fluoro-3-[[(3R)-3-fluoropyrrolidin-1-yl]sulfonylamino]phenyl]thiazol-5-yl]pyrimidin-2-yl]amino]-1-methyl-ethyl]carbamate]			
0.0001 to 1 µM	0.0001 to 1 µM			0.0001 to 1 µM	COC(=O)N[C@@H](C)CNc1nccc(-c2sc(-c3ccccc3)nc2-c2cccc(NS(=O)(=O)N3CC[C@@H](F)C3)c2F)n1 [P-2152, methyl N-[(1S)-2-[[4-[4-[2-fluoro-3-[[(3R)-3-fluoropyrrolidin-1-yl]sulfonylamino]phenyl]-2-phenyl-thiazol-5-yl]pyrimidin-2-yl]amino]-1-methyl-ethyl]carbamate]			
